Here are results for 16 molecules from US7119075B2, “Use of herbal agents for potentiation of bioefficacy of anti infectives” (priority 2003, dated 2006).

In brackets after ≈: the same amount, converted by molar mass.

For assay [1], the system named is Gram positive bacteria. Kind of assay: organism not typed. The class given is cell-based. Conditions: for MIC: read-out: MIC Drug alone.
Assay [2] has as its system Gram negative bacteria. Kind of assay: organism not typed. The class given is cell-based. To be noted: for MIC: read-out: MIC Drug alone.
For assay [3], the system named is M. tuberculosis. Description: MIC of drugs alone and with bioenhancer (Table 7). To be noted: for MIC: Mycobacterium tuberculosis, Drug alone. It counts as cell-based.
Assay [4] concerns Yeast. Description: MIC of drugs alone and with bioenhancer (Table 7). It counts as cell-based. Conditions: for MIC: Saccharomyces cerevisiae, read-out: MIC Drug alone.
The test system of assay [5] is Filamentous fungi. Description: organism not typed. The class given is cell-based.
Assay [6] deals with MRSA 15187. Description: microbe, parasite or virus in culture. Conditions: Staphylococcus aureus.
In assay [7] the test system is MRSA 450. Kind of assay: microbe, parasite or virus in culture. To be noted: Staphylococcus aureus.

In the case of `NCC[C@H](O)C(=O)N[C@@H]1C[C@H](N)[C@@H](O[C@H]2O[C@H](CN)[C@@H](O)[C@H](O)[C@H]2O)[C@H](O)[C@H]1O[C@H]1O[C@H](CO)[C@@H](O)[C@H](N)[C@H]1O` [Amikacin], the results for the MIC in assay [1], in assay [2] and in assay [3] were 2 to 32 µg/mL (≈ 3.42 to 54.6 µM), 0.12 to 4 µg/mL (≈ 0.205 to 6.83 µM) and 0.5 to 1 µg/mL, respectively.
Turning to `C[C@@H]1[C@H](O)[C@@H](C)/C=C/C=C/C=C/C=C/C=C/C=C/C=C/[C@H](O[C@@H]2O[C@H](C)[C@@H](O)[C@H](N)[C@@H]2O)C[C@@H]2O[C@](O)(C[C@@H](O)C[C@@H](O)[C@H](O)CC[C@@H](O)C[C@@H](O)CC(=O)O[C@H]1C)C[C@H](O)[C@H]2C(=O)O` [Amphotericin B], the “MIC Drug alone” value in assay [4] (Drug alone) fell in the range of 0.25 to 2.0 µg/mL; in assay [5] (Drug alone) it was 0.25 to 4 µg/mL.
As to `N[C@@H](C(=O)N[C@@H]1C(=O)N2C(C(=O)O)=C(Cl)CS[C@H]12)c1ccccc1` [Cefaclor], the MIC in assay [1] is 0.06 to 32 µg/mL (≈ 0.163 to 87 µM); in assay [2] it was 0.25 to 64 µg/mL (≈ 0.68 to 174 µM).
The matching figures for `C=CC1=C(C(=O)O)N2C(=O)[C@@H](NC(=O)/C(=N\O)c3csc(N)n3)[C@H]2SC1` [Cefdinir]: 0.06 to 32 µg/mL (≈ 0.152 to 80.9 µM) and 0.25 to 64 µg/mL (≈ 0.632 to 162 µM).
`COCC1=C(C(=O)O)N2C(=O)[C@@H](NC(=O)/C(=N\OC)c3csc(N)n3)[C@H]2SC1` [Cefpedoxime]: the “MIC Drug alone” value in assay [1] lay within 0.12 to 16 µg/mL; in assay [2] it was 0.03 to 64 µg/mL.
For the molecule `CO/N=C(\C(=O)N[C@@H]1C(=O)N2C(C(=O)O)=C(CSc3nc(=O)c(O)nn3C)CS[C@H]12)c1csc(N)n1` [Ceftrioxone], the “MIC Drug alone” value in assay [1] was in the range of 0.12 to 32 µg/mL; in assay [2], 0.03 to 32 µg/mL.
In the case of `O=C(O)c1cn(C2CC2)c2cc(N3CCNCC3)c(F)cc2c1=O` [Ciprofloxacin], the MIC in assay [1] is 0.12 to 32 µg/mL (≈ 0.362 to 96.6 µM); in assay [2], 0.03 to 0.5 µg/mL (≈ 0.0905 to 1.51 µM); in assay [3], 0.5 to 1 µg/mL; in assay [6] it was 64 µg/mL (≈ 193 µM); in assay [7], 64 µg/mL (≈ 193 µM).
On to `CC[C@@H](CO)NCCN[C@@H](CC)CO` [Ethambutol], for which the MIC in assay [3] lay within 1 to 5 µg/mL.
Turning to `OC(Cn1cncn1)(Cn1cncn1)c1ccc(F)cc1F` [Fluconazole], the MIC in assay [4] was in the range of 0.12 to 64 µg/mL.
For the molecule `NNC(=O)c1ccncc1` [Isoniazid], the MIC in assay [3] fell in the range of 0.12 to 32 µg/mL.
For the molecule `CC(=O)N1CCN(c2ccc(OCC3COC(Cn4ccnc4)(c4ccc(Cl)cc4Cl)O3)cc2)CC1` (centres unmarked) [Ketoconazole], the MIC is 0.12 to 0.5 µg/mL in assay [4] and 0.25 to 2 µg/mL (≈ 0.47 to 3.76 µM) in assay [5] (read-out: MIC Drug alone).
Consider `CCn1cc(C(=O)O)c(=O)c2cc(F)c(N3CCNCC3)cc21` [Norfloxacin], for which the MIC in assay [1] was in the range of 0.12 to 32 µg/mL (≈ 0.376 to 100 µM). Besides, in assay [2], the “MIC Drug alone” value was in the range of 0.03 to 64 µg/mL.
As to `CC1COc2c(N3CCN(C)CC3)c(F)cc3c(=O)c(C(=O)O)cn1c23` (centres unmarked) [Ofloxacin], the MIC fell in the range of 0.12 to 32 µg/mL (≈ 0.332 to 88.6 µM) in assay [1], 0.06 to 32 µg/mL (≈ 0.166 to 88.6 µM) in assay [2] and 0.5 to 2.5 µg/mL in assay [3]. Moreover, the “MIC Drug alone” value in assay [3] fell in the range of 0.5 to 25 µg/mL.
On to `NC(=O)c1cnccn1` [Pyrazinamide], for which the MIC in assay [3] is 6 to 60 µg/mL.
Still for that read-out and setting: for `CO[C@H]1/C=C/O[C@@]2(C)Oc3c(C)c(O)c4c(O)c(c(/C=N/N5CCN(C)CC5)c(O)c4c3C2=O)NC(=O)/C(C)=C\C=C\[C@H](C)[C@H](O)[C@@H](C)[C@@H](O)[C@@H](C)[C@H](OC(C)=O)[C@@H]1C` [Rifampicin] the value was 0.06 to 0.5 µg/mL.
`CN[C@H](CC(C)C)C(=O)N[C@H]1C(=O)N[C@@H](CC(N)=O)C(=O)N[C@H]2C(=O)N[C@H]3C(=O)N[C@H](C(=O)N[C@H](C(=O)O)c4cc(O)cc(O)c4-c4cc3ccc4O)[C@H](O)c3ccc(c(Cl)c3)Oc3cc2cc(c3O[C@@H]2O[C@H](CO)[C@@H](O)[C@H](O)[C@H]2O[C@H]2C[C@](C)(N)[C@H](O)[C@H](C)O2)Oc2ccc(cc2Cl)[C@H]1O` [Vancomycin]: the MIC in assay [1] was 0.03 to 8 µg/mL (≈ 0.0207 to 5.52 µM).
